# Data as given in patent US20250228873A1, “C25 R AND S ISOMERS OF AMINOSTEROLS AND METHODS OF MAKING AND USING THE SAME” (Enterin, Inc., priority 2022, published 2025).
# “And” between values parts separate entries of the source, which are not always exact repeats. Equal entries are not always repeated. “Also recorded” adds a separate entry of the source. Where two headings read alike, the source gives them in different places.
# Assays:
# [1] = Mouse weight after deuterated ENT-03 i.p. (FIG. 12); type: in vivo; conditions: i.p. to mice
# Source text: The presence of the deuterium on the side chain likely slows the action of the 2-methylacyl-coenzyme A racemase on C-25, the subsequent action of the dehydrogenase that produces the 24,25-trans-unsaturated derivative by removing the deuterium atoms at C24 and C25, and the subsequent hydration and oxidation at the C24 bond catalyzed by the D-bifunctional protein. Instead, the metabolism of ENT-03D3 will begin with the oxidation at C24 by CYP46A1, yielding the following compound: […]
# [2] = Pharmacokinetic profile, intravenous administration; type: in vivo, male SD Rats; conditions: I.V. 5 mg/kg, plasma; for MRT inf: read-out: MRTInf_obs
# Protocol: The objective of this example was to determine the pharmacokinetic profile of ENT-03 (Compound III) via intravenous and oral administration in male SD Rats.
# Animal feeding control: Animals were food fasted overnight prior to dosing and fed 4 hours after administration having free access to water.
# PK Sample Analyses: Concentrations of ENT-03 (Compound III) in the plasma and dose samples were analyzed using a LC-MS/MS method. WinNonlin (Phoenix™, version 6.1) or other similar software was used for pharmacokinetic calculations. The following pharmacokinetic parameters were calculated, whenever possible from the plasma concentration versus time data.
# IV Bolus administration: T1/2, C0, AUClast, AUCinf, MRTinf, Cl, Vss, Number of Points for Regression.
# The pharmacokinetic data was described using descriptive statistics such as mean and standard deviation. All the residual biological samples were retained in the freezer ([…]) for a period of 6 months after testing.
# hAPP-J20 mice = test: Morris water maze, amyloid Alzheimer's model; type: in vivo; conditions: 2.5 mg/kg/wk i.p. over 6 weeks, vs vehicle treated littermates
# Source text: (§1) The Morris water maze was used to test the effect of ENT-03 on spatial learning and memory deficits in 2 mouse models of familial Alzheimer's disease, hAPP-J20 mice that express a double mutant of the human amyloid precursor protein (Mucke et al., 2000), and PS19 mice that express the P301S mutant of the human microtubule associated protein tau (Yoshiyama et al., 2007).
# (§2) hAPP-J20 mice expressing human APP bearing the Swedish and Indiana familial mutations (B6.Cg-Zbtb20Tg(PDGFB-APPSwInd)20Lms/2Mmjax, (Mucke et al., 2000)) and PS19 mice expressing the P301S mutation of human tau protein (B6;C3-Tg(Prnp-MAPT*P301S)PS19Vle/J (Yoshiyama et al., 2007)) were purchased from Jackson laboratories and maintained as colonies in the animal facility of the University of Ottawa. Heterozygous hAPP-J20 and PS19 mice were used. Genotypes were verified by PCR using genomic DNA isolated from tail or ear biopsies. […]
# (§3) The Morris water maze test to analyze the ability of mice to learn and remember the location of a submerged platform in a pool containing opaque water was conducted in the Faculty of Medicine Behavior Core Laboratory at the University of Ottawa. […] On the probe day, crossings of the platform area and target quadrant were counted and swimming speed was measured using Ethovision automated video tracking software (Noldus).
# PS19 mice = test: Morris water maze, tau Alzheimer's model; type: in vivo; conditions: 2.5 mg/kg/wk i.p. over 6 weeks, vs vehicle treated littermates
# Source text: as §1, §2, §3
# [3] = individual rats (Rat 1-3), listed as ENT-03 (Compound III), 5 mg/kg
# [4] = male, SD, rat, iv, 5 mg/kg, Mean
# [5] = male, SD, rat, iv, 5 mg/kg, individual rats (Rat 1-3)
smiles,measurement,setting,value
"CC(CCC[C@@H](C)[C@H]1CCC2C3C(CC[C@@]21C)[C@@]1(C)CC[C@H](NCCCNCCCCNCCCN)C[C@@H]1C[C@H]3O)C(=O)O (single isomer, unassigned) [ENT-03]",effect on weight,[1],loss of weight
same,AUC_%Extrap_obs,[2]; Mean,38.2%
same,AUClast/D,[2]; Mean,122000 h·ng/mL per mg/kg
same,Cl_obs,[2]; Mean,5.1 mL/h/kg
same,Vss_obs,[2]; Mean,0.125 L/kg
same,AUCInf,[2]; [3],941.13 µg·h/mL and 1095.763 µg·h/mL
same,AUC_%Extrap_obs,[2]; [3],39.6% and 35.4% and 39.7%
same,AUClast,[2]; [3],608.321 µg·h/mL and 661.154 µg·h/mL
same,AUClast/D,[2]; [3],112000 h·ng/mL per mg/kg and 122000 h·ng/mL per mg/kg and 132000 h·ng/mL per mg/kg
same,C0,[2]; [3],102.409 µg/mL and 76.2 µg/mL
same,Cl_obs,[2]; [3],5.42 mL/h/kg and 5.31 mL/h/kg and 4.57 mL/h/kg
same,MRTInf_obs,[2]; [3],22.9 h and 25.5 h
same,T1/2,[2]; [3],17.5 h and 18.6 h
same,Vss_obs,[2]; [3],0.137 L/kg and 0.122 L/kg and 0.116 L/kg
same,AUC(0-inf),[2]; [4],986 µg·h/mL
same,AUC(0-t),[2]; [4],609 µg·h/mL
same,half-life,[2]; [4],18.2 h
same,C0,"[2]; male, SD, rat, iv, 5 mg/kg, Mean, read-out: C0",86.3 µg/mL
same,MRT inf,[2]; [4],24.6 h
same,AUC(0-inf),[2]; [5],922 µg·h/mL
same,AUC(0-t),[2]; [5],558 µg·h/mL
same,half-life,[2]; [5],18.6 h
same,C0,"[2]; male, SD, rat, iv, 5 mg/kg, individual rats (Rat 1-3), read-out: C0",80.4 µg/mL
same,MRT inf,[2]; [5],25.3 h
same,learning during the training phase (latency to find the hidden platform),hAPP-J20 mice,improved; also recorded: decreased the latency to find the hidden platform
same,"memory on the probe day (platform area crossings, time in platform area)",hAPP-J20 mice,improved memory
same,learning during the training phase,PS19 mice,improved
same,memory on the probe day,PS19 mice,improved
